Molecular target: T1, L1 transport system (large neutral amino acid carrier, L1-system carrier) (Rattus norvegicus, UniProt Q63016)
T1 construct: functionality of their endogenous transporters such as the L1-system carrier; endogenous in cells; host or cells: rat primary cerebrovascular (brain microcapillary) endothelial cells, RBEC
Assay: Competitive binding assay to the brain L1 transport system (L-[U-14C]phenylalanine on rat primary cerebrovascular endothelial cells)
Summary of the method: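 Cells were primary cerebral microvascular endothelial cells from cortices of 24-day-old rats, isolated by collagenase/DNAse digestion, dextran separation and mesh filtration.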

T1 sequence (Q63016 whole entry): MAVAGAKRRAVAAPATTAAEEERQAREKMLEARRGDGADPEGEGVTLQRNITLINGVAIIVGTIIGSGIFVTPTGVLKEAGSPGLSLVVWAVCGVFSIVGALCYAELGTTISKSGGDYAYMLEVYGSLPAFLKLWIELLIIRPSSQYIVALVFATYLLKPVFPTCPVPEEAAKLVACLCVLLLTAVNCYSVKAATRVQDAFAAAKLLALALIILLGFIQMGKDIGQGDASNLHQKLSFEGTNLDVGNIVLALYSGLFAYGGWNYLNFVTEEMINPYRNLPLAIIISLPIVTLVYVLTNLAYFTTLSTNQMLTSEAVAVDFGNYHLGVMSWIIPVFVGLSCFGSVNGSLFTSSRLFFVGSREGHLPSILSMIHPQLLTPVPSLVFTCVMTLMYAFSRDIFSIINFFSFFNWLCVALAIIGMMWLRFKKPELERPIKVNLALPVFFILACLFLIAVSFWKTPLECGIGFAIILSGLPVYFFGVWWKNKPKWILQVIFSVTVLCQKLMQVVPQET
T1 sequence (Q794F9 whole entry partner): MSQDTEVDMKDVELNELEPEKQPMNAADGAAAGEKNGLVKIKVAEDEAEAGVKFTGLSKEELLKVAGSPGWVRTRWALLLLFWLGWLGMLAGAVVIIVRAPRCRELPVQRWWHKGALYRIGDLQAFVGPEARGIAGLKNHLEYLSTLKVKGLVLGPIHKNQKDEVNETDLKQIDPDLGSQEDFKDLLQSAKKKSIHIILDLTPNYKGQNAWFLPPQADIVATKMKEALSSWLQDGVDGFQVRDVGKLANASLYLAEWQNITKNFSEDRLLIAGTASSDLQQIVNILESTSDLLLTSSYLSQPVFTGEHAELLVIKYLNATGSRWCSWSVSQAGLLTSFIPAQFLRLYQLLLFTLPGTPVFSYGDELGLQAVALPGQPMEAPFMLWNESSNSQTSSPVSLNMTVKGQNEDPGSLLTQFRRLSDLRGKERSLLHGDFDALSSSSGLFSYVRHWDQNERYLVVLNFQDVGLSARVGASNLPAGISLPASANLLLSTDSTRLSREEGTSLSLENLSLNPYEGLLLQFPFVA

SMILES | Comparison with the Binding of Phenylalanine (10^−4 M) | Comparison with the Binding of Phenylalanine (10^−5 M) | Comparison with the Binding of Phenylalanine (10^−6 M) | Status of Binding (compounds of Example 4, 10^−6, 10^−5 and 10^−4, Δ versus phenylalanine)
NC(Cc1cccc(CSc2nc3ccccc3c(=O)[nH]2)c1)C(=O)O (stereo not shown) [Compound 110] | 1 (0 < X < 10 Rank 1) | 1 (0 < X < 10 Rank 1) | 1 (0 < X < 10 Rank 1) | 
NC(=O)C(N)Cc1cccc(CSc2nccc(N)n2)n1 (stereo not shown) [Compound 39] | 0 (X < 0 Rank 0) | 2 (10 < X < 20 Rank 2) | 3 (X > 20 Rank 3) | 
Cc1nc(SCc2cccc(CC(N)C(=O)O)n2)sc1CC(=O)O (stereo not shown) [Compound 92] | 0 (X < 0 Rank 0) | 0 (X < 0 Rank 0) | 1 (0 < X < 10 Rank 1) | 
N#CC1(c2ccccc2)CCN(Cc2cccc(CC(N)C(=O)O)n2)CC1 (stereo not shown) [Compound 117] | 0 (X < 0 Rank 0) | 0 (X < 0 Rank 0) | 1 (0 < X < 10 Rank 1) | 
CCOC(=O)c1c[nH]c(Sc2cccc(-c3cccc(CC(N)C(=O)O)c3)c2)nc1=O (stereo not shown) [Compound 72] | 1 (0 < X < 10 Rank 1) | 2 (10 < X < 20 Rank 2) | 1 (0 < X < 10 Rank 1) | 
COc1ccc2[nH]c(SCc3cccc(CC(N)C(=O)O)c3)nc2c1 (stereo not shown) [Compound 135] | 2 (10 < X < 20 Rank 2) | 3 (X > 20 Rank 3) | 2 (10 < X < 20 Rank 2) | 
NC(Cc1ccc(-c2ccc(CSc3ccnc4cc(C(F)(F)F)ccc34)cc2)cc1)C(=O)O (stereo not shown) [Compound 47] | 0 (X < 0 Rank 0) | 2 (10 < X < 20 Rank 2) | 2 (10 < X < 20 Rank 2) | 
N[C@@H](Cc1cccc(CSc2nccc(C(F)(F)F)n2)n1)C(=O)O [drawing 476] |  |  |  | 1 (1: −10 > Δ > −50%, lower binding affinity than phenylalanine)

From US20060167057A1, “Compounds for the treatment of CNS and amyloid associated diseases” (priority 2004, published 2006)
